# Experimental data from ChEMBL document CHEMBL4396916, “Novel potent substituted 4-amino-2-thiopyrimidines as dual VEGFR-2 and BRAF kinase inhibitors” (Eur J Med Chem, 2019).
# Columns and labels:
# [1] = tested on: SF-539; assay: Growth inhibition of human SF539 cells at 10 uM incubated for 48 hrs by sulforhodamine B assay relative to control; type: functional; conditions: SF-539, 48 h, read-out: GI
# [2] = tested on: OVCAR-4; assay: Growth inhibition of human OVCAR4 cells at 10 uM incubated for 48 hrs by sulforhodamine B assay relative to control; type: functional; conditions: OVCAR-4, 48 h, read-out: GI
# [3] = tested on: SR; assay: Growth inhibition of human SR cells at 10 uM incubated for 48 hrs by sulforhodamine B assay relative to control; type: functional; conditions: read-out: GI
# [4] = tested on: ACHN; assay: Growth inhibition of human ACHN cells at 10 uM incubated for 48 hrs by sulforhodamine B assay relative to control; type: functional; conditions: read-out: GI
# [5] = tested on: KM12; assay: Growth inhibition of human KM12 cells at 10 uM incubated for 48 hrs by sulforhodamine B assay relative to control; type: functional; conditions: KM12, 48 h, read-out: GI
# [6] = tested on: HCT-116; assay: Growth inhibition of human HCT116 cells at 10 uM incubated for 48 hrs by sulforhodamine B assay relative to control; type: functional; conditions: HCT-116, 48 h, read-out: GI
# [7] = tested on: DU-145; assay: Growth inhibition of human DU145 cells at 10 uM incubated for 48 hrs by sulforhodamine B assay relative to control; type: functional; conditions: DU-145, 48 h, read-out: GI
# [8] = tested on: NCI-H226; assay: Growth inhibition of human NCI-H226 cells at 10 uM incubated for 48 hrs by sulforhodamine B assay relative to control; type: functional; conditions: NCI-H226, 48 h, read-out: GI
# [9] = molecular target: Vascular endothelial growth factor receptor 2 (Homo sapiens, UniProt P35968); assay: Inhibition of human N-terminal GST tagged VEGFR-2 expressed in baculovirus infected Sf9 cells using poly (Glu,Tyr) 4:1 as substrate in presence of ATP by Kinase-Glo luminescence assay
# Chain of Vascular endothelial growth factor receptor 2 (P35968 whole entry): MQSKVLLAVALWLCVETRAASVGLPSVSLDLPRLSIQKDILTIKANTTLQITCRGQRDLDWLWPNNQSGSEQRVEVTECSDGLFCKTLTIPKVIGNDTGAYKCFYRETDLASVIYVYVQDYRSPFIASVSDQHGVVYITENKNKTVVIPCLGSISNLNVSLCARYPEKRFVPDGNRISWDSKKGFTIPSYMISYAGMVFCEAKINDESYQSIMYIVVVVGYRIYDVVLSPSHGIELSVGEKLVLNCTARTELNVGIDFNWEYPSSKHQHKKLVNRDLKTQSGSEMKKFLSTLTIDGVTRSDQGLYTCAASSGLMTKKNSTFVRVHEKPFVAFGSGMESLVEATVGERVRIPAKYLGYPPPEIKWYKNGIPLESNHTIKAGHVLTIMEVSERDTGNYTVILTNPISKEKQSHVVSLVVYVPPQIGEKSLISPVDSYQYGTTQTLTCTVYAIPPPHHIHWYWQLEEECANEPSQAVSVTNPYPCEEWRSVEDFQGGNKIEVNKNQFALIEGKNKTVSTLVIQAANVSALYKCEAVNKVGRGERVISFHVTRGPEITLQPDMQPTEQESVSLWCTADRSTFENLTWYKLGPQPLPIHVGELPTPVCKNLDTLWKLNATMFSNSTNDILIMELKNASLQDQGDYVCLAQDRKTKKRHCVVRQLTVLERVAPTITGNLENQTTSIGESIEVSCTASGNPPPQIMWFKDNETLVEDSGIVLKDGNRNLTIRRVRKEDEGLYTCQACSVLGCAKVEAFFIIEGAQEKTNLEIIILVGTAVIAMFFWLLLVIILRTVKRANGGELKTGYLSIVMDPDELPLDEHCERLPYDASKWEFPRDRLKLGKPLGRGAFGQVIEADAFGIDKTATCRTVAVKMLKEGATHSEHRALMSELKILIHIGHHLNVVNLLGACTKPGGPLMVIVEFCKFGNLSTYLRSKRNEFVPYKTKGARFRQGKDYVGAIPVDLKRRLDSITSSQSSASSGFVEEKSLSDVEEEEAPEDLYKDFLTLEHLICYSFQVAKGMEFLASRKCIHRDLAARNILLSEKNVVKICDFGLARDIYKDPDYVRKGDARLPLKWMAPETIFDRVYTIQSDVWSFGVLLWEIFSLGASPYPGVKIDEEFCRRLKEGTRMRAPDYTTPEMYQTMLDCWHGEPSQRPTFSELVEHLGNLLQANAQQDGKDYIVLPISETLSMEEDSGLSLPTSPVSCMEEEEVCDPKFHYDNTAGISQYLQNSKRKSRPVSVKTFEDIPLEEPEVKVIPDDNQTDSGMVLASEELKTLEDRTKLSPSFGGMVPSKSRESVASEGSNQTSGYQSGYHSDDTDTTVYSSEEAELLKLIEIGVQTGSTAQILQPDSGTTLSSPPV
# [10] = tested on: SK-MEL-28; assay: Growth inhibition of human SK-MEL-28 cells at 10 uM incubated for 48 hrs by sulforhodamine B assay relative to control; type: functional; conditions: SK-MEL-28, 48 h, read-out: GI
# [11] = tested on: SK-MEL-5; assay: Growth inhibition of human SK-MEL-5 cells at 10 uM incubated for 48 hrs by sulforhodamine B assay relative to control; type: functional; conditions: SK-MEL-5, 48 h, read-out: GI
# [12] = tested on: HCT-15; assay: Growth inhibition of human HCT15 cells at 10 uM incubated for 48 hrs by sulforhodamine B assay relative to control; type: functional; conditions: HCT-15, 48 h, read-out: GI
# [13] = tested on: A498; assay: Growth inhibition of human A498 cells at 10 uM incubated for 48 hrs by sulforhodamine B assay relative to control; type: functional; conditions: A498, 48 h, read-out: GI
# [14] = tested on: BT-549; assay: Growth inhibition of human BT549 cells at 10 uM incubated for 48 hrs by sulforhodamine B assay relative to control; type: functional; conditions: BT-549, 48 h, read-out: GI
# [15] = tested on: CAKI-1; assay: Growth inhibition of human Caki1 cells at 10 uM incubated for 48 hrs by sulforhodamine B assay relative to control; type: functional; conditions: CAKI-1, 48 h, read-out: GI
# [16] = tested on: NCI-H522; assay: Growth inhibition of human NCI-H522 cells at 10 uM incubated for 48 hrs by sulforhodamine B assay relative to control; type: functional; conditions: NCI-H522, 48 h, read-out: GI
# [17] = tested on: LOX IMVI; assay: Growth inhibition of human LOXIMVI cells at 10 uM incubated for 48 hrs by sulforhodamine B assay relative to control; type: functional; conditions: read-out: GI
# [18] = tested on: UO-31; assay: Growth inhibition of human UO31 cells at 10 uM incubated for 48 hrs by sulforhodamine B assay relative to control; type: functional; conditions: UO-31, 48 h, read-out: GI
# [19] = tested on: IGROV-1; assay: Growth inhibition of human IGROV1 cells at 10 uM incubated for 48 hrs by sulforhodamine B assay relative to control; type: functional; conditions: IGROV-1, 48 h, read-out: GI
# [20] = tested on: UACC-62; assay: Growth inhibition of human UACC62 cells at 10 uM incubated for 48 hrs by sulforhodamine B assay relative to control; type: functional; conditions: UACC-62, 48 h, read-out: GI
# [21] = tested on: K562; assay: Growth inhibition of human K562 cells at 10 uM incubated for 48 hrs by sulforhodamine B assay relative to control; type: functional; conditions: K562, 48 h, read-out: GI
# [22] = tested on: SF-295; assay: Growth inhibition of human SF295 cells at 10 uM incubated for 48 hrs by sulforhodamine B assay relative to control; type: functional; conditions: SF-295, 48 h, read-out: GI
# [23] = tested on: CCRF-CEM; assay: Growth inhibition of human CCRF-CEM cells at 10 uM incubated for 48 hrs by sulforhodamine B assay relative to control; type: functional; conditions: read-out: GI
# [24] = tested on: MDA-MB-231; assay: Growth inhibition of human MDA-MB-231 cells at 10 uM incubated for 48 hrs by sulforhodamine B assay relative to control; type: functional; conditions: MDA-MB-231, 48 h, read-out: GI
# [25] = tested on: T47D; assay: Growth inhibition of human T47D cells at 10 uM incubated for 48 hrs by sulforhodamine B assay relative to control; type: functional; conditions: read-out: GI
# [26] = tested on: MDA-MB-435; assay: Growth inhibition of human MDA-MB-435 cells at 10 uM incubated for 48 hrs by sulforhodamine B assay relative to control; type: functional; conditions: MDA-MB-435, 48 h, read-out: GI
# [27] = tested on: MCF7; assay: Cytotoxicity against human MCF7 cells expressing VEGFR2 and wild type BRAF measured after 48 hrs by sulforhodamine B assay; type: functional, cell-based; conditions: MCF7, 48 h
# [28] = tested on: MDA-MB-468; assay: Growth inhibition of human MDA-MB-468 cells at 10 uM incubated for 48 hrs by sulforhodamine B assay relative to control; type: functional; conditions: MDA-MB-468, 48 h, read-out: GI
# [29] = tested on: NCI/ADR-RES; assay: Growth inhibition of human NCI/ADR-RES cells at 10 uM incubated for 48 hrs by sulforhodamine B assay relative to control; type: functional; conditions: read-out: GI
# [30] = molecular target: Serine/threonine-protein kinase B-raf (Homo sapiens, UniProt P15056); assay: Inhibition of human wild type BRAF by Kinase-Glo luminescence assay
# Chain of Serine/threonine-protein kinase B-raf (P15056 whole entry): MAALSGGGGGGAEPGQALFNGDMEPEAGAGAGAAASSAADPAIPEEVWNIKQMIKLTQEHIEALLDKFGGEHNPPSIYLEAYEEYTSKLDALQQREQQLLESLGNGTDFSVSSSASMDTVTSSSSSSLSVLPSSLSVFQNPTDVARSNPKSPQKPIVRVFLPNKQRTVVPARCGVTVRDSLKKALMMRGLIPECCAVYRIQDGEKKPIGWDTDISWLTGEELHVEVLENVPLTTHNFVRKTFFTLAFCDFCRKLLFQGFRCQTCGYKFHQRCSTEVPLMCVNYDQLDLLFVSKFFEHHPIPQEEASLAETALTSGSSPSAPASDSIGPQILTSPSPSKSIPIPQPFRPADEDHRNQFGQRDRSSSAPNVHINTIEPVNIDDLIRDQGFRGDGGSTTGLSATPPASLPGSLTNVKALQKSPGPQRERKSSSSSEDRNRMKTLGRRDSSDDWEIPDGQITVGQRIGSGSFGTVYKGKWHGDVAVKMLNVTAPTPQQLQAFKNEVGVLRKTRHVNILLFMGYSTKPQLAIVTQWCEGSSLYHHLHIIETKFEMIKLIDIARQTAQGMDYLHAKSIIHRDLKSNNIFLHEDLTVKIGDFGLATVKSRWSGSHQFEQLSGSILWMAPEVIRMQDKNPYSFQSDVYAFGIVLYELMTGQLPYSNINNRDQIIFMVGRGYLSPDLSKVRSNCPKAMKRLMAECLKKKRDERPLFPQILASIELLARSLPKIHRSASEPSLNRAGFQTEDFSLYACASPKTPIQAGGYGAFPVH
# [31] = tested on: MCF7; assay: Inhibition of VEGFR2 level in human MCF7 cells at 10 uM measured after 48 hrs by ELISA relative to control; type: functional; conditions: MCF7, 48 h
# [32] = tested on: MCF7; assay: Growth inhibition of human MCF7 cells at 10 uM incubated for 48 hrs by sulforhodamine B assay relative to control; type: functional; conditions: MCF7, 48 h, read-out: GI
# [33] = tested on: RPMI-8226; assay: Growth inhibition of human RPMI8226 cells at 10 uM incubated for 48 hrs by sulforhodamine B assay relative to control; type: functional; conditions: RPMI-8226, 48 h, read-out: GI
# [34] = tested on: EKVX; assay: Growth inhibition of human EKVX cells at 10 uM incubated for 48 hrs by sulforhodamine B assay relative to control; type: functional; conditions: read-out: GI
# [35] = tested on: MOLT-4; assay: Growth inhibition of human MOLT4 cells at 10 uM incubated for 48 hrs by sulforhodamine B assay relative to control; type: functional; conditions: MOLT-4, 48 h, read-out: GI
# [36] = tested on: M14; assay: Growth inhibition of human M14 cells at 10 uM incubated for 48 hrs by sulforhodamine B assay relative to control; type: functional; conditions: M14, 48 h, read-out: GI
# [37] = tested on: HT-29; assay: Growth inhibition of human HT-29 cells at 10 uM incubated for 48 hrs by sulforhodamine B assay relative to control; type: functional; conditions: HT-29, 48 h, read-out: GI
# [38] = tested on: NCI-H23; assay: Growth inhibition of human NCI-H23 cells at 10 uM incubated for 48 hrs by sulforhodamine B assay relative to control; type: functional; conditions: NCI-H23, 48 h, read-out: GI
# [39] = tested on: A549; assay: Growth inhibition of human A549/ATCC cells at 10 uM incubated for 48 hrs by sulforhodamine B assay relative to control; type: functional; conditions: A549, 48 h, read-out: GI
# [40] = tested on: OVCAR-8; assay: Growth inhibition of human OVCAR8 cells at 10 uM incubated for 48 hrs by sulforhodamine B assay relative to control; type: functional; conditions: OVCAR-8, 48 h, read-out: GI
# [41] = tested on: T47D; assay: Cytotoxicity against human T47D cells expressing wild type BRAF measured after 48 hrs by sulforhodamine B assay; type: functional, cell-based
# [42] = tested on: SN12C; assay: Growth inhibition of human SN12C cells at 10 uM incubated for 48 hrs by sulforhodamine B assay relative to control; type: functional; conditions: read-out: GI
# [43] = tested on: UACC-257; assay: Growth inhibition of human UACC257 cells at 10 uM incubated for 48 hrs by sulforhodamine B assay relative to control; type: functional; conditions: UACC-257, 48 h, read-out: GI
# [44] = tested on: NCI-H460; assay: Growth inhibition of human NCI-H460 cells at 10 uM incubated for 48 hrs by sulforhodamine B assay relative to control; type: functional; conditions: NCI-H460, 48 h, read-out: GI
# [45] = tested on: PC-3; assay: Growth inhibition of human PC3 cells at 10 uM incubated for 48 hrs by sulforhodamine B assay relative to control; type: functional; conditions: PC-3, 48 h, read-out: GI
structure (smiles),measurement,setting,value
CCOC(=O)c1ccc(Nc2ccnc(SCC(=O)c3ccc([N+](=O)[O-])cc3)n2)cc1,inhibition of growth at 10 µM,[1],11%
same,inhibition of growth at 10 µM,[2],20%
same,inhibition of growth at 10 µM,[3],35%
same,inhibition of growth at 10 µM,[4],15%
same,inhibition of growth at 10 µM,[5],21%
same,inhibition of growth at 10 µM,[6],26%
same,inhibition of growth at 10 µM,[7],16%
same,inhibition of growth at 10 µM,[8],16%
same,IC50,[9],410 nM
same,inhibition of growth at 10 µM,[10],11%
same,inhibition of growth at 10 µM,[11],41%
same,inhibition of growth at 10 µM,[12],13%
same,inhibition of growth at 10 µM,[13],61%
same,inhibition of growth at 10 µM,[14],28%
same,inhibition of growth at 10 µM,[15],16%
same,inhibition of growth at 10 µM,[16],37%
same,inhibition of growth at 10 µM,[17],10%
same,inhibition of growth at 10 µM,[18],41%
same,inhibition of growth at 10 µM,[19],19%
same,inhibition of growth at 10 µM,[20],29%
same,inhibition of growth at 10 µM,[21],37%
same,inhibition of growth at 10 µM,[22],28%
same,inhibition of growth at 10 µM,[23],49%
same,inhibition of growth at 10 µM,[24],22%
same,inhibition of growth at 10 µM,[25],60%
same,inhibition of growth at 10 µM,[26],15%
same,IC50,[27],16.5 µM
same,inhibition of growth at 10 µM,[28],51%
same,inhibition of growth at 10 µM,[29],27%
same,IC50,[30],220 nM
same,inhibition at 10 µM,[31],80%
same,inhibition of growth at 10 µM,[32],22%
same,inhibition of growth at 10 µM,[33],54%
same,inhibition of growth at 10 µM,[34],27%
same,inhibition of growth at 10 µM,[35],58%
same,inhibition of growth at 10 µM,[36],16%
same,inhibition of growth at 10 µM,[37],19%
same,inhibition of growth at 10 µM,[38],13%
same,inhibition of growth at 10 µM,[39],21%
same,inhibition of growth at 10 µM,[40],31%
same,IC50,[41],8.09 µM
same,inhibition of growth at 10 µM,[42],17%
same,inhibition of growth at 10 µM,[43],13%
same,inhibition of growth at 10 µM,[44],11%
same,inhibition of growth at 10 µM,[45],33%
